Reference: ChEMBL document CHEMBL1201862, “PubChem BioAssay data set” (2004)
Activity calls are given as the source filed them. Rule as the data show it, for most assays here: actives have a measured EC50 and inactives only a lower limit.

Tests used:
[1] = HEp-2 cell cytotoxicity, dose response, cytotoxicity control for RSV inhibitor project, HTS (AID 2410); assay type: functional; conditions: human respiratory syncytial virus
[2] = target: T1, RNA-binding protein pos-1 (Caenorhabditis elegans, UniProt G5EF15); assay: inhibitors of POS-1/mex-3 RNA binding, dose response, biochemical, fluorescence polarization (AID 1964);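 also: purified POS-1 fused to maltose binding protein made in E. coli; potency of compounds blocking POS-1 binding to fluorescent RNA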
T1 sequence (G5EF15 whole entry): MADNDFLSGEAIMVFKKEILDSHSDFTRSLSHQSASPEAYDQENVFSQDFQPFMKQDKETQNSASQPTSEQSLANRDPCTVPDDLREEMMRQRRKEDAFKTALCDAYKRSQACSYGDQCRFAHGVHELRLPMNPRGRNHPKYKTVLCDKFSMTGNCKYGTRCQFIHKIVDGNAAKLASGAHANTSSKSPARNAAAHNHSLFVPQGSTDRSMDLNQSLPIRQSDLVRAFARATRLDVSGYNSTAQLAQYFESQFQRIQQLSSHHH

[3] = target: T2, Zinc finger protein mex-5 (Caenorhabditis elegans, UniProt Q9XUB2); assay: MEX-5/TCR-2 RNA interaction inhibitors, dose response, biochemical, C. elegans, fluorescence polarization (AID 1960)
T2 sequence (Q9XUB2 whole entry): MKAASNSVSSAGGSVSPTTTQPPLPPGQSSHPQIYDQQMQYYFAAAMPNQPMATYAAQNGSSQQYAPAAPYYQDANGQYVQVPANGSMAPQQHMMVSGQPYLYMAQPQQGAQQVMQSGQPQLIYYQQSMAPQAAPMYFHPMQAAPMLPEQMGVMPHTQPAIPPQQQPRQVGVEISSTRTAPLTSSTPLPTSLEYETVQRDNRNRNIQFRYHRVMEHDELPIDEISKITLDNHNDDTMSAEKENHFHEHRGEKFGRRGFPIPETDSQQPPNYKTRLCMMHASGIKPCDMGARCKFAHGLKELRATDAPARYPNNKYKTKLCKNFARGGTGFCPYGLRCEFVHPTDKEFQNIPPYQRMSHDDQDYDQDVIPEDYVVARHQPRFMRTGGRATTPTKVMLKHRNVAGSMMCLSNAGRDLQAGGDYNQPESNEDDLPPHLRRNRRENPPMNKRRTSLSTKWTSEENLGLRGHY

[4] = microbe, parasite or virus in culture; assay type: functional; conditions: Mycobacterium tuberculosis
[5] = target: T3, Corticotropin-releasing factor receptor 2/Corticotropin-releasing factor-binding protein (Homo sapiens, UniProt P24387+Q13324); assay: activators of CRF receptor 2 with binding protein – uHTS hits, confirmation (AID 602473); assay type: functional; conditions: read-out: EC50_Mean
T3 sequence (Q13324 whole entry): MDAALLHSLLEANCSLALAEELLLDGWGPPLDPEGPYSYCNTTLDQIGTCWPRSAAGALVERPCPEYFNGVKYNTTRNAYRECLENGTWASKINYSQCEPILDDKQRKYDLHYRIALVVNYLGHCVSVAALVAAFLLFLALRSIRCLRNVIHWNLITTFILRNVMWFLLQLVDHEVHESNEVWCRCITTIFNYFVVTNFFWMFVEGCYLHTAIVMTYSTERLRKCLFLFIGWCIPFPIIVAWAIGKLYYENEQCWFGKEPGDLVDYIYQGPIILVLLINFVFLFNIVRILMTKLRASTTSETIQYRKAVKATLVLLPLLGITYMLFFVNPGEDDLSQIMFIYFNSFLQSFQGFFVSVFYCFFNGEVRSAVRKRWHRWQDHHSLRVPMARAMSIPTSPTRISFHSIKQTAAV
T3 sequence (P24387 whole entry): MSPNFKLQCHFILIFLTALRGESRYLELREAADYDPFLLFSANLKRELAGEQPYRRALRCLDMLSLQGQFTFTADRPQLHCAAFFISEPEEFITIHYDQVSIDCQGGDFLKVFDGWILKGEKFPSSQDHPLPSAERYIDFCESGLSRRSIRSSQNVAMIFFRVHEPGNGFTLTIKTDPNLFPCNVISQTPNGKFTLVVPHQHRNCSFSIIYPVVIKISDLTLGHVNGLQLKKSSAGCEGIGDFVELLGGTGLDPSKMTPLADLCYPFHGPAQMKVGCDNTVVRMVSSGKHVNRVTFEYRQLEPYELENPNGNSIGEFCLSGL

[6] = inhibitors of firefly luciferase expression or activity, dose response, H4 neuroglioma cells, luminescence (AID 1990); assay type: functional, cell-based
[7] = Luminescence Cell-Based Dose Response HTS to Identify Inhibitors of 5'UTR Stem-Loop Driven Prion Protein mRNA Translation in H4 Neuroglioblastoma Cells. [Related pubchem assays: 1827 (Project Summary), 1813 (Primary HTS)]; assay type: functional
[8] = inhibitors of SNCA 5'UTR-driven reporter translation, confirmation, H4 neuroglioma cells, luminescence (AID 1988); assay type: functional, cell-based
[9] = inhibitors of intracellular T. cruzi replication, confirmation, NIH3T3 host cells, beta-gal luminescence (AID 2044); assay type: functional, cell-based;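 also: intracellular parasites grown in NIH/3T3 mouse fibroblasts as host cells; luminescent beta-galactosidase reporter signal from transgenic T. cruzi replicating inside host cells; inhibitors lower the luminescence signal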
[10] = cytotoxicity toward NIH3T3 fibroblasts, dose response, counter-screen, cell-based, ATP luminescence, mouse fibroblasts (AID 2010); assay type: functional;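 also: cells exposed to compound for about 90 hours before reading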
INS1 = assay: beta cell apoptosis inhibitors, cytokine rescue, dose response, luminescence, retest (AID 449756); assay type: functional, cell-based; conditions: Rattus norvegicus;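 also: cell death triggered by IL-1 beta plus TNF-alpha plus IFN-gamma mixture; protective hits raise ATP signal compared with cytokine alone wells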
[11] = Shn3 3'UTR reporter inhibitors, dose response, cell-based, Clone20 osteoblasts, firefly luciferase, cherry-picked (AID 624132); assay type: functional;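 also: firefly luciferase luminescence from reporter carrying the Shn3 3'UTR in osteoblasts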
[12] = HepG2 cell cytotoxicity, dose response, cytotoxicity control for Shn3 inhibitor project, CellTiter-Glo, cherry-picked (AID 624134); assay type: functional, cell-based
[13] = control 3'UTR Renilla luciferase suppression, dose response, counter-screen for Shn3 inhibitor project, cell-based, Clone20-Shn3RL, cherry-picked (AID 624133); assay type: functional
[14] = target: T4, Replicative DNA helicase DnaB (Mycobacterium tuberculosis, UniProt P9WMR3); assay: DnaB intein splicing inhibitors, dose response, biochemical, cell-free fluorescence (AID 449749); assay type: functional
T4 sequence (P9WMR3 whole entry): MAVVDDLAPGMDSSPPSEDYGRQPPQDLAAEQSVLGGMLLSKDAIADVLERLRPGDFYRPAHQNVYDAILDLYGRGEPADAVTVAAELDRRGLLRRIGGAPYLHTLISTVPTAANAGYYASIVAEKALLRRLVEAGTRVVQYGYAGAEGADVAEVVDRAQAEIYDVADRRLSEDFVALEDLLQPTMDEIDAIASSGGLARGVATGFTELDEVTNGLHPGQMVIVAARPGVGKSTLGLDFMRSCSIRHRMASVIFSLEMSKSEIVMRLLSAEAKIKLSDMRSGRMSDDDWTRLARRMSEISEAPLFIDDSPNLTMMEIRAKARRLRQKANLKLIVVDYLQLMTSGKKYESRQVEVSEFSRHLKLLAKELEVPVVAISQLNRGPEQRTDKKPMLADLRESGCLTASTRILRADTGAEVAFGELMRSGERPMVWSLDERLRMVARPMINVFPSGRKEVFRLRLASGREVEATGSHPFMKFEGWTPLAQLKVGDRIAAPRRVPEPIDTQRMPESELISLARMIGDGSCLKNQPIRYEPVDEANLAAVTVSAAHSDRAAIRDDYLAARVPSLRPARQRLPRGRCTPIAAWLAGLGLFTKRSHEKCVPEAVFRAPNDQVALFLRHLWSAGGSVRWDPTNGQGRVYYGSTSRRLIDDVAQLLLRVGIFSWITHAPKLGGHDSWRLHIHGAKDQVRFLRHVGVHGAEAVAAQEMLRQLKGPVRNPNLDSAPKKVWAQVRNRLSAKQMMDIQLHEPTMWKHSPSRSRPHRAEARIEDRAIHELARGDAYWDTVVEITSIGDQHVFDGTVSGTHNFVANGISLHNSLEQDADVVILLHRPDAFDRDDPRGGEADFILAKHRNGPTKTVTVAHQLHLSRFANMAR

Protein RecA = target: T5, Protein RecA (Mycobacterium tuberculosis, UniProt P9WHJ3); assay: Fluorescence Cell-Free Homogeneous Dose Retest to Identify Inhibitors of RecA-Intein Splicing Activity. [Related pubchem assays (depositor defined):AID2097, AID2223, AID489010, AID492950]; assay type: functional
T5 sequence (P9WHJ3 whole entry): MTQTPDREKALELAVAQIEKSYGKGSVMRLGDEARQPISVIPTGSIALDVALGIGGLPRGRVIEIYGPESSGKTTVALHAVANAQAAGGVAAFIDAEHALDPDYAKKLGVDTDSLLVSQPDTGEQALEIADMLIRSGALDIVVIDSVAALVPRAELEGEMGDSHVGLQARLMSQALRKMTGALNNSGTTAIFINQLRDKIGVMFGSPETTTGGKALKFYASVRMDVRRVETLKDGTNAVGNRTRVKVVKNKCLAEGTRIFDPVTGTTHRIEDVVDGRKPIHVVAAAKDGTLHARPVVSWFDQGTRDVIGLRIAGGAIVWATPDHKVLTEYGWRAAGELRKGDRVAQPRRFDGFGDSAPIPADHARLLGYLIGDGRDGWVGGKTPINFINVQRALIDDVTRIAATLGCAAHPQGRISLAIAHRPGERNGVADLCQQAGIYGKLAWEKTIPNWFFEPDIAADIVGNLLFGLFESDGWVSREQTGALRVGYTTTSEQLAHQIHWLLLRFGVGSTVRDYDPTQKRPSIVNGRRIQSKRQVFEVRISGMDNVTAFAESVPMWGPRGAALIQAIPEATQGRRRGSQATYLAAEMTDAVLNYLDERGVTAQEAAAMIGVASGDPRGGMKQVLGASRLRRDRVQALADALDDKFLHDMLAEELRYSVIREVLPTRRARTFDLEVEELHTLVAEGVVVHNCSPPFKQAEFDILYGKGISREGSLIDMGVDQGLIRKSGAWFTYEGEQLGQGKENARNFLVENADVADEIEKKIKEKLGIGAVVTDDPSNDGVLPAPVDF

[15] = growth suppression of PTEN-null colon cells, dose response, cell-based, HCT116 PTEN knockout (AID 1047); assay type: functional;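 also: HCT116 colon tumor cells with PTEN knocked out; cells exposed to compound for 60 hours before readout; potency for loss of cell viability measured by luminescence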

Row | SMILES | CC50 [1] | EC50 [2] | EC50 [3] | also measured
1 | COc1ccc(CN2C[C@H](Cc3ccccc3)[C@@H](CC(=O)Nc3ccccc3)C2=O)cc1 | 22 µM (active) | – | – | –
2 | FC(F)(F)c1cc(C(F)(F)F)n2nc(-c3sccc3-n3cccc3)cc2n1 | – | > 300 µM (not active) | > 300 µM (not active) | –
3 | CC(=O)CSc1ncnc2c1cnn2-c1ccccc1 | 42.5 µM (active) | – | – | –
4 | O=C(Nc1ccc(N2CCOCC2)cc1)c1cc2c(s1)CCCCC2 | 23.8 µM (active) | – | – | –
5 | CCCCCCN1C(=O)/C(=C/Nc2ccccc2N2CCOCC2)C(=O)NC1=S | – | > 300 µM (not active) | > 300 µM (inconclusive) | –
6 | O=C(Cn1cncn1)N/N=C/c1c2ccccc2cc2ccccc12 | – | > 300 µM (not active) | > 300 µM (not active) | –
7 | CC(=O)Nc1cccc(-c2cc(-c3c(Cl)cccc3Cl)no2)c1 | 18.3 µM (active) | – | – | –
8 | Cc1nn(Cc2ccccc2Cl)c2sc(C(=O)NCCCn3ccnc3)cc12 | – | – | – | CC50 [4]: > 40 µM (active)
9 | Cc1nn(CCc2nn[nH]n2)c2nc(-c3ccc(Br)cc3)cc(C(F)(F)F)c12 | – | – | – | CC50 [4]: > 40 µM (active)
10 | O=C(O)CCc1ccc(-c2ccccc2)n1-c1cccc(C(=O)O)c1 | – | > 300 µM (not active) | > 300 µM (not active) | –
11 | CCCn1c(N2CCN(Cc3ccc(Cl)cc3)CC2)nc2ccccc21 | – | – | – | CC50 [4]: > 40 µM (active)
12 | C/C(=N/N=C(\C)c1ccccc1O)c1ccccc1O | – | > 300 µM (not active) | > 300 µM (inconclusive) | –
13 | CCCN1CCc2c(sc(NC(=O)c3ccc(S(=O)(=O)N4CCCC4)cc3)c2C(N)=O)C1 | – | – | – | EC50 [5]: 3.22 µM (active)
14 | Cc1ccc(NC(=O)CN(C)CC(=O)Nc2sc3c(c2C(N)=O)CCC3)cc1 | 28.1 µM (active) | – | – | –
15 | CCOc1ccc(S(=O)(=O)N2CCN(C(=O)c3cc4c(s3)CCCC4)CC2)cc1 | 28.8 µM (active) | – | – | CC50 [4]: > 40 µM (active)
16 | Cc1ccc(N(C)S(=O)(=O)c2c(C)noc2/C=C/N(C)C)cc1 | – | > 300 µM (not active) | > 300 µM (not active) | –
17 | CCc1ccc(/C=C2\Oc3c(ccc(O)c3CN3CCN(CCO)CC3)C2=O)cc1 | – | 37.1 µM (active) | 73.3 µM (active) | –
18 | COc1cc2nc(N3CCN(c4cc(C)ccc4C)CC3)nc(N)c2cc1OC | – | – | – | EC50 [6]: > 120 µM (not active); EC50 [7]: > 120 µM (not active); EC50 [8]: > 120 µM (not active); EC50 [9]: 3.35 µM (active); CC50 [4]: 3.41 µM (active); EC50 [10]: 16.7 µM (active); AC50 (INS1): 7.37 µM (active); AC50 [11]: 5.44 µM (active); AC50 [12]: 10.2 µM (active); AC50 [13]: 12.7 µM (active)
19 | Cc1cc[n+](C2=C([N-]S(=O)(=O)c3cccs3)C(=O)c3ccccc3C2=O)cc1C | – | > 300 µM (not active) | > 300 µM (not active) | EC50 [9]: > 60 µM (not active); EC50 [10]: > 30 µM (not active); AC50 [14]: 3.69 µM (active); EC50 (Protein RecA): 3.8 µM (active)
20 | CCN1C(=C(C#N)C#N)C=Cc2ccccc21 | – | > 300 µM (inconclusive) | > 300 µM (not active) | –
21 | NC(=O)c1cc(-c2csc(-c3cccnc3)n2)ccc1O | 22.7 µM (active) | – | – | –
22 | CCOC(=O)c1cnc(SCc2cccc(C)c2)nc1N | 43.8 µM (active) | – | – | –
23 | CCOC(=O)N1CCN(c2nc(N(c3ccccc3)c3ccccc3)nc(-n3ccnc3)n2)CC1 | – | – | – | CC50 [4]: > 40 µM (active)
24 | S=C(NCCc1ccc(Cl)cc1)Nc1ccc(Cl)cc1Cl | – | – | – | EC50 [15]: 30.9 µM (active)
25 | CC/C(NCCCN(C)C)=C1/C(=O)NC(=O)N(c2ccc(OC)cc2)C1=O | – | > 300 µM (not active) | > 300 µM (not active) | –
26 | CC(C)(C)N1CC2([N+](=O)[O-])CN(C(C)(C)C)CC([N+](=O)[O-])(C1)C2 | – | – | – | EC50 [5]: 4.6 µM (active)
